# Data published in patent publication US8052961B2, “Highly fluorinated β-amino acids and methods of making and using same” (University of Utah Foundation, priority 2006, dated 2011).
# Legend:
# [1] = 1-octanol/water partition coefficient (Poct) of tripeptides
# Protocol: The 1-octanol/water partition coefficients (Poct) of the two tripeptides were evaluated.
# To 20 mg of peptide 4 or 5 were added 2 mL of water and 2 mL of 1-octanol. The resulting mixture was shaken with a mixer for 10 min. After the aqueous and the organic phases were fully separated, 50 μL of solution was taken out from each phase for HPLC analysis. To a mixture of 200 μL aqueous solution and 200 μL 1-octanol solution were added 1.8 mL of water and 1.8 mL of 1-octanol. The resulting mixture was shaken with a mixer for 10 min. After the phases were fully separated, 50 μL of solution was taken out from each phase for reversed-phases HPLC analysis.
# [2] = cited from earlier work
Compound,melting point [°C],also measured
NCC(COC(C(F)(F)F)(C(F)(F)F)C(F)(F)F)(COC(C(F)(F)F)(C(F)(F)F)C(F)(F)F)C(=O)O,182 to 184,–
O=C(NCC(COC(C(F)(F)F)(C(F)(F)F)C(F)(F)F)(COC(C(F)(F)F)(C(F)(F)F)C(F)(F)F)C(=O)O)OCC1c2ccccc2-c2ccccc21,104 to 105,–
CC(C)(C)OC(=O)NCC(COC(C(F)(F)F)(C(F)(F)F)C(F)(F)F)(COC(C(F)(F)F)(C(F)(F)F)C(F)(F)F)C(=O)O,128 to 130,–
"NC(=O)CNC(=O)C(CNC(=O)CNC=O)(COC(C(F)(F)F)(C(F)(F)F)C(F)(F)F)COC(C(F)(F)F)(C(F)(F)F)C(F)(F)F [tripeptide 4, Formyl-Gly-βFa-Gly-Amide]",–,logP at 10 min [1]: > 1
octreotide,–,in vivo half-life (t1/2) [2]: 2 h
